Assay results from patent publication US20100160454A1, “ANTIMICROBIAL AGENTS, COMPOSITIONS AND PRODUCTS CONTAINING THE SAME, AND METHODS OF USING THE COMPOSITIONS AND PRODUCTS” (Eastman Chemical Company, priority 2008, published 2010).

Legend:
Experiment in all cases: Microbiological challenge testing in BPW broth, graded subculture counts
Format in all cases: cell-based
Aeromonas sp. Wild type = tested on: Aeromonas sp. Wild type
Outline: (§1)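 Serial 1:10 dilutions were made in pH 7.2 phosphate buffer and spread-plated onto PCA, and colonies were counted after 48 h or more at 35 °C. In the challenge, BPW–dextrose tubes containing the test material received inoculum at 10^5–10^6 CFU/mL at time zero. Controls without test material served as reference.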

[1] = tested on: Bacillus subtilis Wild type
Outline: as §1

[2] = tested on: Proteus vulgaris Wild type
Outline: as §1

[3] = tested on: Escherichia coli ATCC 25922; settings: E. Coli
Outline: as §1

[4] = tested on: Pseudomonas aeruginosa Wild type; settings: P. aeruginosa
Outline: as §1

[5] = tested on: Staphylococcus aureus ATCC 25923; settings: S. aureus
Outline: as §1

OCC1CCCC(CO)C1 (stereo not drawn) [1,3-CHDM, 1,3-cyclohexanedimethanol]
Aeromonas sp growth grade, 3 day (Aeromonas sp. Wild type; 0.5% weight/volume): 5 (More than 10,000 colonies estimated (thus more than 100,000 CFU/mL)) | Aeromonas sp growth grade, 14 day (Aeromonas sp. Wild type; 0.5% weight/volume): 4 (1000 to 10,000 colonies countable (thus 10,000 CFU/mL to 100,000 CFU/mL)) | Aeromonas sp growth grade, 30 day (Aeromonas sp. Wild type; 0.5% weight/volume): 4 (1000 to 10,000 colonies countable (thus 10,000 CFU/mL to 100,000 CFU/mL)) | Aeromonas sp growth grade, 3 day (Aeromonas sp. Wild type; 1.25% weight/volume): 4 (1000 to 10,000 colonies countable (thus 10,000 CFU/mL to 100,000 CFU/mL)) | Aeromonas sp growth grade, 14 day (Aeromonas sp. Wild type; 1.25% weight/volume): 4 (1000 to 10,000 colonies countable (thus 10,000 CFU/mL to 100,000 CFU/mL)) | Aeromonas sp growth grade, 30 day (Aeromonas sp. Wild type; 1.25% weight/volume): 4 (1000 to 10,000 colonies countable (thus 10,000 CFU/mL to 100,000 CFU/mL)) | Aeromonas sp growth grade, 3 day (Aeromonas sp. Wild type; 2.5% weight/volume): 4 (1000 to 10,000 colonies countable (thus 10,000 CFU/mL to 100,000 CFU/mL)) | Aeromonas sp growth grade, 14 day (Aeromonas sp. Wild type; 2.5% weight/volume): 4 (1000 to 10,000 colonies countable (thus 10,000 CFU/mL to 100,000 CFU/mL)) | Aeromonas sp growth grade, 30 day (Aeromonas sp. Wild type; 2.5% weight/volume): 4 (1000 to 10,000 colonies countable (thus 10,000 CFU/mL to 100,000 CFU/mL)) | Aeromonas sp growth grade, 3 day (Aeromonas sp. Wild type; 5.0% weight/volume): 4 (1000 to 10,000 colonies countable (thus 10,000 CFU/mL to 100,000 CFU/mL)) | Aeromonas sp growth grade, 14 day (Aeromonas sp. Wild type; 5.0% weight/volume): 4 (1000 to 10,000 colonies countable (thus 10,000 CFU/mL to 100,000 CFU/mL)) | Aeromonas sp growth grade, 30 day (Aeromonas sp. Wild type; 5.0% weight/volume): 4 (1000 to 10,000 colonies countable (thus 10,000 CFU/mL to 100,000 CFU/mL)) | B. subtillis growth grade, 3 day ([1]; 0.5% weight/volume): 4 (1000 to 10,000 colonies countable (thus 10,000 CFU/mL to 100,000 CFU/mL)) | B. subtillis growth grade, 14 day ([1]; 0.5% weight/volume): 4 (1000 to 10,000 colonies countable (thus 10,000 CFU/mL to 100,000 CFU/mL)) | B. subtillis growth grade, 30 day ([1]; 0.5% weight/volume): 4 (1000 to 10,000 colonies countable (thus 10,000 CFU/mL to 100,000 CFU/mL)) | B. subtillis growth grade, 3 day ([1]; 1.25% weight/volume): 4 (1000 to 10,000 colonies countable (thus 10,000 CFU/mL to 100,000 CFU/mL)) | B. subtillis growth grade, 14 day ([1]; 1.25% weight/volume): 4 (1000 to 10,000 colonies countable (thus 10,000 CFU/mL to 100,000 CFU/mL)) | B. subtillis growth grade, 30 day ([1]; 1.25% weight/volume): 4 (1000 to 10,000 colonies countable (thus 10,000 CFU/mL to 100,000 CFU/mL)) | B. subtillis growth grade, 3 day ([1]; 2.5% weight/volume): 4 (1000 to 10,000 colonies countable (thus 10,000 CFU/mL to 100,000 CFU/mL)) | B. subtillis growth grade, 14 day ([1]; 2.5% weight/volume): 4 (1000 to 10,000 colonies countable (thus 10,000 CFU/mL to 100,000 CFU/mL)) | B. subtillis growth grade, 30 day ([1]; 2.5% weight/volume): 4 (1000 to 10,000 colonies countable (thus 10,000 CFU/mL to 100,000 CFU/mL)) | B. subtillis growth grade, 3 day ([1]; 5.0% weight/volume): 4 (1000 to 10,000 colonies countable (thus 10,000 CFU/mL to 100,000 CFU/mL)) | B. subtillis growth grade, 14 day ([1]; 5.0% weight/volume): 4 (1000 to 10,000 colonies countable (thus 10,000 CFU/mL to 100,000 CFU/mL)) | B. subtillis growth grade, 30 day ([1]; 5.0% weight/volume): 4 (1000 to 10,000 colonies countable (thus 10,000 CFU/mL to 100,000 CFU/mL)) | P. vulgaris growth grade, 3 day ([2]; 0.5% weight/volume): 5 (More than 10,000 colonies estimated (thus more than 100,000 CFU/mL)) | P. vulgaris growth grade, 13 day ([2]; 0.5% weight/volume): 5 (More than 10,000 colonies estimated (thus more than 100,000 CFU/mL)) | P. vulgaris growth grade, 30 day ([2]; 0.5% weight/volume): 5 (More than 10,000 colonies estimated (thus more than 100,000 CFU/mL)) | P. vulgaris growth grade, 3 day ([2]; 1.25% weight/volume): 5 (More than 10,000 colonies estimated (thus more than 100,000 CFU/mL)) | P. vulgaris growth grade, 13 day ([2]; 1.25% weight/volume): 4 (1000 to 10,000 colonies countable (thus 10,000 CFU/mL to 100,000 CFU/mL)) | P. vulgaris growth grade, 30 day ([2]; 1.25% weight/volume): 4 (1000 to 10,000 colonies countable (thus 10,000 CFU/mL to 100,000 CFU/mL)) | P. vulgaris growth grade, 3 day ([2]; 2.5% weight/volume): 4 (1000 to 10,000 colonies countable (thus 10,000 CFU/mL to 100,000 CFU/mL)) | P. vulgaris growth grade, 13 day ([2]; 2.5% weight/volume): 4 (1000 to 10,000 colonies countable (thus 10,000 CFU/mL to 100,000 CFU/mL)) | P. vulgaris growth grade, 30 day ([2]; 2.5% weight/volume): 4 (1000 to 10,000 colonies countable (thus 10,000 CFU/mL to 100,000 CFU/mL)) | P. vulgaris growth grade, 3 day ([2]; 5.0% weight/volume): 4 (1000 to 10,000 colonies countable (thus 10,000 CFU/mL to 100,000 CFU/mL)) | P. vulgaris growth grade, 13 day ([2]; 5.0% weight/volume): 4 (1000 to 10,000 colonies countable (thus 10,000 CFU/mL to 100,000 CFU/mL)) | P. vulgaris growth grade, 30 day ([2]; 5.0% weight/volume): 4 (1000 to 10,000 colonies countable (thus 10,000 CFU/mL to 100,000 CFU/mL)) | Grade ([3]; 0.5% (wt/vol), 3 day): 5 (More than 10,000 colonies estimated (thus more than 100,000 CFU/mL)) | Grade ([3]; 0.5% (wt/vol), 14 day): 5 (More than 10,000 colonies estimated (thus more than 100,000 CFU/mL)) | Grade ([3]; 0.5% (wt/vol), 30 day): 5 (More than 10,000 colonies estimated (thus more than 100,000 CFU/mL)) | Grade ([3]; 1.25% (wt/vol), 3 day): 5 (More than 10,000 colonies estimated (thus more than 100,000 CFU/mL)) | Grade ([3]; 1.25% (wt/vol), 14 day): 4 (1000 to 10,000 colonies countable (thus 10,000 CFU/mL to 100,000 CFU/mL)) | Grade ([3]; 1.25% (wt/vol), 30 day): 4 (1000 to 10,000 colonies countable (thus 10,000 CFU/mL to 100,000 CFU/mL)) | Grade ([3]; 2.5% (wt/vol), 3 day): 5 (More than 10,000 colonies estimated (thus more than 100,000 CFU/mL)) | Grade ([3]; 2.5% (wt/vol), 14 day): 4 (1000 to 10,000 colonies countable (thus 10,000 CFU/mL to 100,000 CFU/mL)) | Grade ([3]; 2.5% (wt/vol), 30 day): 4 (1000 to 10,000 colonies countable (thus 10,000 CFU/mL to 100,000 CFU/mL)) | Grade ([3]; 5.0% (wt/vol), 3 day): 4 (1000 to 10,000 colonies countable (thus 10,000 CFU/mL to 100,000 CFU/mL)) | Grade ([3]; 5.0% (wt/vol), 14 day): 3 (100 to 1000 colonies (thus 1000 to 10,000 CFU/mL)) | Grade ([3]; 5.0% (wt/vol), 30 day): 4 (1000 to 10,000 colonies countable (thus 10,000 CFU/mL to 100,000 CFU/mL)) | Grade ([4]; 0.5% (wt/vol), 3 day): 5 (More than 10,000 colonies estimated (thus more than 100,000 CFU/mL)) | Grade ([4]; 0.5% (wt/vol), 13 day): 5 (More than 10,000 colonies estimated (thus more than 100,000 CFU/mL)) | Grade ([4]; 0.5% (wt/vol), 30 day): 5 (More than 10,000 colonies estimated (thus more than 100,000 CFU/mL)) | Grade ([4]; 1.25% (wt/vol), 3 day): 4 (1000 to 10,000 colonies countable (thus 10,000 CFU/mL to 100,000 CFU/mL)) | Grade ([4]; 1.25% (wt/vol), 13 day): 4 (1000 to 10,000 colonies countable (thus 10,000 CFU/mL to 100,000 CFU/mL)) | Grade ([4]; 1.25% (wt/vol), 30 day): 4 (1000 to 10,000 colonies countable (thus 10,000 CFU/mL to 100,000 CFU/mL)) | Grade ([4]; 2.5% (wt/vol), 3 day): 4 (1000 to 10,000 colonies countable (thus 10,000 CFU/mL to 100,000 CFU/mL)) | Grade ([4]; 2.5% (wt/vol), 13 day): 4 (1000 to 10,000 colonies countable (thus 10,000 CFU/mL to 100,000 CFU/mL)) | Grade ([4]; 2.5% (wt/vol), 30 day): 4 (1000 to 10,000 colonies countable (thus 10,000 CFU/mL to 100,000 CFU/mL)) | Grade ([4]; 5.0% (wt/vol), 3 day): 4 (1000 to 10,000 colonies countable (thus 10,000 CFU/mL to 100,000 CFU/mL)) | Grade ([4]; 5.0% (wt/vol), 13 day): 4 (1000 to 10,000 colonies countable (thus 10,000 CFU/mL to 100,000 CFU/mL)) | Grade ([4]; 5.0% (wt/vol), 30 day): 4 (1000 to 10,000 colonies countable (thus 10,000 CFU/mL to 100,000 CFU/mL)) | Grade ([5]; 0.5% (wt/vol), 3 day): 5 (More than 10,000 colonies estimated (thus more than 100,000 CFU/mL)) | Grade ([5]; 0.5% (wt/vol), 14 day): 5 (More than 10,000 colonies estimated (thus more than 100,000 CFU/mL)) | Grade ([5]; 0.5% (wt/vol), 30 day): 5 (More than 10,000 colonies estimated (thus more than 100,000 CFU/mL)) | Grade ([5]; 1.25% (wt/vol), 3 day): 4 (1000 to 10,000 colonies countable (thus 10,000 CFU/mL to 100,000 CFU/mL)) | Grade ([5]; 1.25% (wt/vol), 14 day): 4 (1000 to 10,000 colonies countable (thus 10,000 CFU/mL to 100,000 CFU/mL)) | Grade ([5]; 1.25% (wt/vol), 30 day): 4 (1000 to 10,000 colonies countable (thus 10,000 CFU/mL to 100,000 CFU/mL)) | Grade ([5]; 2.5% (wt/vol), 3 day): 4 (1000 to 10,000 colonies countable (thus 10,000 CFU/mL to 100,000 CFU/mL)) | Grade ([5]; 2.5% (wt/vol), 14 day): 4 (1000 to 10,000 colonies countable (thus 10,000 CFU/mL to 100,000 CFU/mL)) | Grade ([5]; 2.5% (wt/vol), 30 day): 4 (1000 to 10,000 colonies countable (thus 10,000 CFU/mL to 100,000 CFU/mL)) | Grade ([5]; 5.0% (wt/vol), 3 day): 4 (1000 to 10,000 colonies countable (thus 10,000 CFU/mL to 100,000 CFU/mL)) | Grade ([5]; 5.0% (wt/vol), 14 day): 3 (100 to 1000 colonies (thus 1000 to 10,000 CFU/mL)) | Grade ([5]; 5.0% (wt/vol), 30 day): 4 (1000 to 10,000 colonies countable (thus 10,000 CFU/mL to 100,000 CFU/mL))
